In patent US20240381872A1, “SUBSTITUTED 2,3-DIHYDRO[1,3]THIAZOLO[4,5-B]PYRIDINES, SALTS THEREOF AND THEIR USE AS HERBICIDALLY ACTIVE SUBSTANCES” (BAYER AKTIENGESELLSCHAFT, priority 2021, published 2024):

Columns and labels:
Format in all cases: in vivo
[1] = tested on: Triticum aestivum (TRZAS); assay: Post-emergence effects on crop plants, section F (Table F2); conditions: for percent crop plant damage (wheat, post-emergence) at 80 g/ha / percent crop plant damage (wheat, post-emergence) at 320 g/ha: Triticum aestivum, 504 h, read-out: post-emergence activity against TRZAS in %; for post-emergence activity against TRZAS in %: crop plant damage
Procedure, shortened: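 Crop seeds were sown in sandy loam in pots and greenhouse-grown; at the single-leaf stage, 2 to 3 weeks after sowing, plants were sprayed with WP or EC formulations plus 0.5% additive at 600 l water/ha, 320 g/ha or below. Damage was scored visually about 3 weeks later versus untreated controls (0–100%).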

[2] = tested on: Alopecurus myosuroides (ALOMY); assay: Herbicidal post-emergence action, section E (Table E2); conditions: application rate 320 g/ha, assessed visually after ca. 3 weeks; for pest or weed control at 320 g/ha: Alopecurus myosuroides, post-emergence, 504 h, read-out: post-emergence activity against ALOMY in %
Excerpt: (§1) Seeds of mono- and dicotyledonous weed plants and crop plants were sown, in plastic or organic planting pots, in sandy loam, covered with soil and grown in a greenhouse under controlled growth conditions. 2 to 3 weeks after sowing, the test plants were sprayed in the single-leaf stage. The compounds according to the invention, formulated in form of wettable powders (WP) or as emulsifiable concentrates (EC), were sprayed onto the green plant parts as aqueous suspension or emulsion, with the addition of 0.5% of an additive, at an application rate of 600 l of water/ha (converted). The test plants were placed in the greenhouse for ca. 3 weeks under optimum growth conditions, and then the effect of the preparations was assessed visually in comparison with untreated controls (herbicidal effect in percent (%): 100% effect=plants have died off, 0% effect=as control plants).

[3] = tested on: Matricaria inodora (MATIN); assay: Herbicidal pre-emergence action, section C (Table C6); conditions: application rate 320 g/ha, visual grading after ca. 3 weeks; for pest or weed control at 320 g/ha: Tripleurospermum inodorum, pre-emergence, 504 h, read-out: pre-emergence activity against MATIN in %
Excerpt: Seeds of mono- and dicotyledonous weed plants and crop plants were sown, in plastic or organic planting pots, in sandy loam and covered with soil. The compounds according to the invention, formulated in the form of wettable powders (WP) or as emulsifiable concentrates (EC), were applied to the surface of the covering soil as aqueous suspension or emulsion, with the addition of 0.5% of an additive, at an application rate of 600 l of water/ha (converted). Following treatment, the pots were placed in a greenhouse and kept under optimum growth conditions for the test plants. The visual grading of the damage to the test plants was carried out after ca. 3 weeks in comparison to untreated controls (herbicidal effect in percent (%): 100% effect=plants have died off, 0% effect=as control plants).

[4] = tested on: Polygonum convolvulus (POLCO); assay: Herbicidal post-emergence action, section E (Table E7); conditions: visual assessment ca. 3 weeks after spraying
Excerpt: as §1

[5] = tested on: Echinochloa crus-galli (ECHCG); assay: Herbicidal post-emergence action, section E (Table E5); conditions: application rate 320 g/ha, visual assessment ca. 3 weeks after spraying; for pest or weed control at 320 g/ha: Echinochloa crus-galli, 504 h, read-out: post-emergence activity against ECHCG in %
Excerpt: as §1

Poa annua (POAAN) [6] = assay: Herbicidal post-emergence action, section B (Table B7); conditions: visual rating about 3 weeks after treatment vs untreated controls; for pest or weed control at 320 g/ha: Poa annua, post-emergence, 504 h, read-out: post-emergence activity against POAAN in %
Procedure, shortened: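 Activity was scored visually as percent of untreated controls about 3 weeks after spraying, where 100% meant dead plants and 0% meant no difference. Plants were treated at the one-leaf stage with WP or EC formulations in water containing 0.5% additive, applied at 600 liters per hectare.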

[7] = tested on: Matricaria inodora (MATIN); assay: Herbicidal pre-emergence action, section A (Table A6); conditions: visual grading after ca. 3 weeks vs untreated controls; for pest or weed control at 1280 g/ha: Tripleurospermum inodorum, pre-emergence, 504 h, application rate 1280 g/ha, read-out: pre-emergence activity against MATIN in %
Procedure, shortened: (§2)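 Sandy loam pots, seeds covered with soil, treated on the soil surface with aqueous WP or EC preparations containing 0.5% additive (600 l/ha). Visual damage rating after ca. 3 weeks in greenhouse; scale 0% (as control) to 100% (plants died off).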

Kochia scoparia (KCHSC) = assay: Herbicidal pre-emergence action, section A (Table A4); conditions: visual grading after ca. 3 weeks vs untreated controls; for pre-emergence activity against KCHSC in %: application rate 1280 g/ha
Procedure, shortened: as §2

[8] = tested on: Alopecurus myosuroides (ALOMY); assay: Herbicidal pre-emergence action, section A (Table A2); conditions: application rate 1280 g/ha, visual grading after ca. 3 weeks vs untreated controls
Procedure, shortened: as §2

Poa annua (POAAN) [9] = assay: Herbicidal pre-emergence action, section A (Table A7); conditions: visual grading after ca. 3 weeks vs untreated controls; for pest or weed control at 1280 g/ha: Poa annua, pre-emergence, 504 h, read-out: pre-emergence activity against POAAN in %
Procedure, shortened: as §2

Stellaria media (STEME) = assay: Herbicidal pre-emergence action, section A (Table A9); conditions: application rate 1280 g/ha; for pest or weed control at 1280 g/ha: Stellaria media, 504 h, read-out: pre-emergence activity against STEME in %
Procedure, shortened: as §2

Row | SMILES | percent crop plant damage (wheat, post-emergence) at 80 g/ha ([1]; application rate 80 g/ha) | pest or weed control at 320 g/ha [2] | pest or weed control at 320 g/ha [3] | pest or weed control at 320 g/ha [5] | pre-emergence activity against KCHSC in % (Kochia scoparia (KCHSC)) | pre-emergence activity against STEME in % (Stellaria media (STEME)) | pest or weed control at 320 g/ha (Poa annua (POAAN) [6]; application rate 320 g/ha) | percent crop plant damage (wheat, post-emergence) at 320 g/ha ([1]; application rate 320 g/ha) | pest or weed control at 1280 g/ha [7] | pest or weed control at 1280 g/ha (Poa annua (POAAN) [9]; application rate 1280 g/ha) | pest or weed control at 1280 g/ha (Stellaria media (STEME)) | other results
1 | Fc1ccccc1-c1nc2c(cc1Br)SCN2 [Example I-001, 6-bromo-5-(2-fluorophenyl)-2,3-dihydro[1,3]thiazolo[4,5-b]pyridine] | 0% | 90% | 90% | 90% | – | – | – | – | – | – | – | pest or weed control at 320 g/ha ([4]; Fallopia convolvulus, 504 h, application rate 320 g/ha, read-out: post-emergence activity against POLCO in %): 90%
2 | COC(=O)CCC(=O)N1CSc2cc(Cl)c(-c3ccccc3F)nc21 [Example I-003] | – | – | – | – | 100% | 90% | – | – | – | – | – | post-emergence activity against POAAN in % (Poa annua (POAAN) [6]; application rate 320 g/ha): 100%; post-emergence activity against TRZAS in % ([1]; application rate 320 g/ha): 0%; pre-emergence activity against MATIN in % ([7]; application rate 320 g/ha): 90%; post-emergence activity against ALOMY in % [2]: 80%; pre-emergence activity against MATIN in % [3]: 80%; post-emergence activity against ECHCG in % [5]: 80%; pre-emergence activity against ALOMY in % [8]: 100%; pre-emergence activity against POAAN in % (Poa annua (POAAN) [9]; application rate 1280 g/ha): 100%
3 | BN1CSc2cc(Br)c(-c3ccccc3C)nc21 [Example I-011] | – | – | – | – | 90% | 100% | – | – | – | – | – | post-emergence activity against POAAN in % (Poa annua (POAAN) [6]; application rate 1280 g/ha): 90%; post-emergence activity against TRZAS in % ([1]; application rate 80 g/ha): 0%; post-emergence activity against POLCO in % ([4]; application rate 320 g/ha): 80%; pre-emergence activity against POAAN in % (Poa annua (POAAN) [9]; application rate 320 g/ha): 100%
4 | Clc1ccccc1-c1nc2c(cc1Br)SCN2 [Example I-041, 6-bromo-5-(2-chlorophenyl)-2,3-dihydro[1,3]thiazolo[4,5-b]pyridine] | – | – | – | – | – | – | 90% | 0% | 90% | 100% | 100% | pest or weed control at 320 g/ha (Kochia scoparia (KCHSC); Bassia scoparia, pre-emergence, 504 h, application rate 320 g/ha, read-out: pre-emergence activity against KCHSC in %): 90%; pest or weed control at 1280 g/ha ([8]; Alopecurus myosuroides, pre-emergence, 504 h, read-out: pre-emergence activity against ALOMY in %): 90%
5 | CCc1ccccc1-c1nc2c(cc1C)[S+]([O-])CN2 (centres unmarked) [Example I-047] | – | – | – | – | – | – | 90% | 0% | 90% | 100% | 90% | –
6 | Cc1cc2c(nc1-c1ccccc1Cl)NCS2 [Example I-049, 5-(2-chlorophenyl)-6-methyl-2,3-dihydro[1,3]thiazolo[4,5-b]pyridine] | 10% | 80% | 80% | 80% | – | – | – | – | – | – | – | pest or weed control at 80 g/ha ([4]; Fallopia convolvulus, 504 h, application rate 80 g/ha, read-out: post-emergence activity against POLCO in %): 80%
